Data published in patent publication US12390472B2 (SUZHOU SINOVENT PHARMACEUTICALS CO., LTD., priority 2018, dated 2025).

Experiments:
EZH2 enzyme complex = EZH2 enzyme complex (Homo sapiens (Human), UniProt Q15910); test: Test on EZH2 inhibitory activity (TR-FRET); format: biochemical; conditions: EZH2 enzyme complex 25 ng/uL, histone H3 peptide 4 uM, SAM 2 uM, 300 min; read-out: IC50 of EZH2 inhibition
WSU-DLCL2 = test: Methylated lysine of histone-H3 (H3K27Me3) detection by ELISA, WSU-DLCL2 cells; format: cell-based; conditions: Homo sapiens, WSUDLCL2, 168 h; WSU-DLCL2, 7 days treatment, H3K27Me3 normalized to total histone-3; read-out: IC50 of cell methylation, WSU-DLCL2
Summary of the method: (§1)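 Cells were treated 7 days with compound (4-fold dilutions, 20 uM-0.009 nM), then lysed hypotonically with NaCl adjusted to ~100 mM. Lysate-coated plates were probed by ELISA for H3K27Me3 and total H3 (TMB, A450). Methylation signal was normalised to total H3 before curve fitting.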

Pfeiffer = test: Methylated lysine of histone-H3 (H3K27Me3) detection by ELISA, Pfeiffer cells; format: cell-based, human; conditions: Homo sapiens, 168 h, 7 days treatment, H3K27Me3 normalized to total histone-3, read-out: IC50 of cell methylation, Pfeiffer
Summary of the method: as §1

EZH2 (Y641N) = EZH2 (Y641N) (Homo sapiens (Human), UniProt Q15910, Y641N); test: Test on EZH2 (Y641N) inhibitory activity; format: biochemical
Sequence of EZH2 (Y641N) (Q15910 whole entry Y641N): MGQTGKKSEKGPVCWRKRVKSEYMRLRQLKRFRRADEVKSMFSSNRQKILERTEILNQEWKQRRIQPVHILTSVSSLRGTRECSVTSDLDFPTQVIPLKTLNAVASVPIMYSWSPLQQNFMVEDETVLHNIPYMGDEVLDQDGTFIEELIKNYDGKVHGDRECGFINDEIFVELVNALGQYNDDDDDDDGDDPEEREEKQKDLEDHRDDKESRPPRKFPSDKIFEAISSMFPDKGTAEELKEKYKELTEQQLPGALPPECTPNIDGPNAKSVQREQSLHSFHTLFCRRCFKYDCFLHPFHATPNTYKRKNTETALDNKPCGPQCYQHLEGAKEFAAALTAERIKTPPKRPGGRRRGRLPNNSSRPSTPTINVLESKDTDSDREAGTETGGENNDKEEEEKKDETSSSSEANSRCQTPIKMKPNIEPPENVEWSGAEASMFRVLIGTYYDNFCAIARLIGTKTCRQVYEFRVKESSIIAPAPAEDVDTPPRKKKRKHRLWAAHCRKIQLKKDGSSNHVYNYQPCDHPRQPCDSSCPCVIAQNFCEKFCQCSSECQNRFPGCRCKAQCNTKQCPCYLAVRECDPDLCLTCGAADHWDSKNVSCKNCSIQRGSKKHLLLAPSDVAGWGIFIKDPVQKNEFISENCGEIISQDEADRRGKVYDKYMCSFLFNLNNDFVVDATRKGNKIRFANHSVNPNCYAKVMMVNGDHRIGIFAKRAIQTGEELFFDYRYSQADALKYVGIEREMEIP
Sequence of EZH2 (Y641N) (O75530 whole entry partner): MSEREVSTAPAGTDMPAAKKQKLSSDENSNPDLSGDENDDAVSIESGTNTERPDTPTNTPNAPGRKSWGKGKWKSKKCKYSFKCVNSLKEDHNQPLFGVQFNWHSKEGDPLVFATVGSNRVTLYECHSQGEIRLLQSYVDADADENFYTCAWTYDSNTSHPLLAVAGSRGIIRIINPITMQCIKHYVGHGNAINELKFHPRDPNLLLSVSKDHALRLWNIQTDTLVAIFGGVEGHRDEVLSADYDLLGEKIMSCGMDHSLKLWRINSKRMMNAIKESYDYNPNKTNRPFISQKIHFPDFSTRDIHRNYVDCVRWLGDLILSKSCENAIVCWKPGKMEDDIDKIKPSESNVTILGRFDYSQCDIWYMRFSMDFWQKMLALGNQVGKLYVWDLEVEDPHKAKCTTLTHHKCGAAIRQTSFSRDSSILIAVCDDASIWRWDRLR
Sequence of EZH2 (Y641N) (Q15022 whole entry partner): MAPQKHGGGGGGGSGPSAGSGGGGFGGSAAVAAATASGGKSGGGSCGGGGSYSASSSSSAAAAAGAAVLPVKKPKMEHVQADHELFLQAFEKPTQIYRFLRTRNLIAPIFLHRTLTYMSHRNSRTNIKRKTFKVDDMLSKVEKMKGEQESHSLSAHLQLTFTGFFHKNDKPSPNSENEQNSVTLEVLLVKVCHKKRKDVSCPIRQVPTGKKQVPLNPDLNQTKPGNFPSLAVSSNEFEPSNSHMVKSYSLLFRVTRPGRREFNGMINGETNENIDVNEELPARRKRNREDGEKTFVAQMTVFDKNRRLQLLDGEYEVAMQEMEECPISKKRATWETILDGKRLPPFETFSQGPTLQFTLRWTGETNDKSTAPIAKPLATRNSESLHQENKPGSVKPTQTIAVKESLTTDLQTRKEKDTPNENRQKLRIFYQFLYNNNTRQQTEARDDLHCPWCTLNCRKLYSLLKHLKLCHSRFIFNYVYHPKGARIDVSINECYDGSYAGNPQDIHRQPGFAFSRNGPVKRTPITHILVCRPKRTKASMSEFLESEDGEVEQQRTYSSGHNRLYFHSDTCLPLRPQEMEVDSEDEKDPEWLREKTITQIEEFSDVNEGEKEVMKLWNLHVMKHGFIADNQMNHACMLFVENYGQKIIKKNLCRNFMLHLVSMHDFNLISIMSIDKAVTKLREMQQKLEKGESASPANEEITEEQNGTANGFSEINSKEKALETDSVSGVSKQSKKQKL
Procedure: (§2) Compounds at different concentrations were dissolved in 100% DMSO and transferred to test plates, and the final concentration of DMSO was 1%. Enzyme solution and substrate SAM solution were prepared with 1-fold reaction buffer (optimized Tris buffer). 5 uL of enzyme solution was added to the test plate and wells only added with 5 uL of reaction buffer were used as negative control wells. After incubation at room temperature for 15 min, the plate was added with 5 uL of substrate solution per well to initiate the reaction, and then incubated at room temperature for 60 min. 5 uL of receptor solution was added and the plate was incubated away from light at room temperature for 60 min. 10 uL of donor solution was added and the plate was incubated away from light at room temperature for 30 min. The endpoint values were read on the Envision and the IC50 was calculated.
(§3) Data were fitted by GraphPad Prism 5 software and inhibition rate was calculated according to equation (1) Inh %=(Max−Signal)/(Max−Min)×100 (1)
(§4) IC50 was calculated using equation (2) Y=Bottom+(Top−Bottom)/(1+10^((Log IC50−X)×Hill Slope))
(§5) Y: inhibition rate; X: concentration of the compound

EZH2 (Y641F) = EZH2 (Y641F) (Homo sapiens (Human), UniProt Q15910, Y641F); test: Test on EZH2 (Y641F) inhibitory activity; format: biochemical
Sequence of EZH2 (Y641F) (Q15910 whole entry Y641F): as the sequence (Q15910 whole entry Y641N) above, with N641F counted along it
Sequence of EZH2 (Y641F) (O75530 whole entry partner): as the sequence (O75530 whole entry partner) above
Sequence of EZH2 (Y641F) (Q15022 whole entry partner): as the sequence (Q15022 whole entry partner) above
Procedure: as §2, §3, §4, §5

[1] = tested on: subcutaneous xenograft tumor model of human B lymphocyte Pfeiffer; test: In vivo efficacy in subcutaneous xenograft tumor model of human B lymphocyte Pfeiffer; set-up: species or system mouse; conditions: SCID Beige mice, 100 mg/kg p.o. QD 21 days, tumor volume 21 days after administration
Procedure: Human B lymphocyte strain Pfeiffer was cultured in vitro, in a monolayer way, in a RPMI-1640 medium containing 10% fetal bovine serum, 100 U/mL penicillin and 100 μg/mL streptomycin in an incubator at 37° C./5% CO2. Conventional medium refreshment and subculturing were carried out twice a week, and cells in logarithmic growth phase were collected and used for tumor inoculation after being counted.
Female SCID Beige mice, aged 6-8 weeks and weighed 18-22 g were used in the experiment. The experiment started after 7-day adaptive feed.
Each mouse was inoculated subcutaneously with 10×10^6 Pfeiffer cells in a volume of 0.2 mL in the right side of the neck. The cells were suspended with PBS and matrigel (volume ratio 1:1). After the average tumor volume reached 130 mm^3, the mice were divided into groups with 8 mice per group for administration. The administration volume was 10 uL/g and the dose was 100 mg/kg if there's no special labeling ((p.o. administration, QD, continuous administration for 21 days).
Animal body weights were measured twice weekly and animal mortality and side effects within each group were recorded based on the number of animals in the group.
The experimental indices were to investigate whether tumor growth was inhibited or delayed or the tumor was cured. Tumor diameters were measured twice weekly using a vernier caliper. The tumor volume was calculated according to the following formula: V=0.5 a×b^2, where a and b represent the long diameter and short diameter of the tumor, respectively. The tumor growth inhibitions (TGIs) of the compounds were evaluated by T/C (%). The percentage value of T/C (%) is an index for reflecting the tumor growth inhibition, where T and C represent the average tumor volume of the administration group and the control group, respectively, at a certain day.
The tumor growth inhibition rate was calculated according to the following formula: TGI (%)=(1−(Ti−T0)/(Vi−V0))×100, where Ti is the average tumor volume of a certain administration group on a certain day, T0 is the average tumor volume of the administration group at the start of administration, Vi is the average tumor volume of the vehicle control group on a certain day (same day as Ti) and V0 is the average tumor volume of the vehicle control group at the start of administration.
Relative tumor volumes at each time point for each group were statistically analyzed and differences among groups were assessed based on the data. The statistical method used for testing was one-way ANOVA.

Sequence of EZH2 enzyme complex (Q15910 whole entry): as the sequence (Q15910 whole entry Y641N) above, with N641Y counted along it
Sequence of EZH2 enzyme complex (O75530 whole entry partner): as the sequence (O75530 whole entry partner) above
Sequence of EZH2 enzyme complex (Q15022 whole entry partner): as the sequence (Q15022 whole entry partner) above

CCN(c1cc(O[C@H]2C[C@H](N3C[C@@H](C)O[C@@H](C)C3)C2)cc(C(=O)NCc2c(C)cc(C)[nH]c2=O)c1C)C1CCC(F)(F)CC1 [Example 45, 3-((4,4-difluorocyclohexyl)(ethyl)amino)-N-((4,6-dimethyl-2-oxo-1,2-dihydropyridin-3-yl)methyl)-5-(trans-3-(cis-2,6-dimethylmorpholinyl)cyclobutoxy)-2-methylbenzamide]
IC50 (EZH2 enzyme complex): 10 to 100 nM
IC50 (WSU-DLCL2): 50 to 500 nM
IC50 (Pfeiffer): 50 to 500 nM
IC50 (EZH2 (Y641N)): 5.2 nM
IC50 (EZH2 (Y641F)): 3 nM
TGI [1]: 66.20%
